Results reported in patent US20230321012A1 (priority 2021, published 2023).

Assay: clinical
Conditions: for Cmax / Tmax / AUC(0-t): human
Description: Clinical Trial Outline. […] All solid tumor types are eligible for the trial. […] An expansion cohort was included at the RP2D level to confirm safety and tolerability of the combination. […] In Part 2, patients were treated by giving both agents twice daily (BID dosing schedule).
Plasma samples were analyzed for AMXT 1501 concentration via a LC/MS^2 procedure (MI-0028-DB-AB; Agilux Laboratories, Worcester, Massachusetts), and the resulting concentration versus time data were used to estimate individual PK parameters using noncompartmental analysis (NCA).

[1] = Part 1 Cohort 1, 80 mg QD, Cycle 1 Day 1
[2] = Part 1 Cohort 1, 80 mg QD, Cycle 1 Day 14
[3] = Part 1 Cohort 1, 80 mg QD, Cycle 1 Day 28, +DFMO 500 mg/day
[4] = Part 1 Cohort 2, 160 mg QD, Cycle 1 Day 1
[5] = Part 1 Cohort 2, 160 mg QD, Cycle 1 Day 14
[6] = Part 1 Cohort 2, 160 mg QD, Cycle 1 Day 28, +DFMO 500 mg/day
[7] = Part 1 Cohort 3, 400 mg QD, Cycle 1 Day 14
[8] = Part 1 Cohort 3, 400 mg QD, Cycle 1 Day 28, +DFMO 500 mg/day
[9] = Part 1 Cohort 3, 400 mg QD, Day 1
[10] = Part 1 Cohort 4, 1200 mg QD, Cycle 1 Day 1
[11] = Part 1 Cohort 4, 1200 mg QD, Cycle 1 Day 14
[12] = Part 1 Cohort 5, 1800 mg QD, Cycle 1 Day 1
[13] = Part 1 Cohort 5, 1800 mg QD, Cycle 1 Day 14
[14] = Part 1 Cohort 5, 1800 mg QD, Cycle 1 Day 28, +DFMO 500 mg/day
[15] = Part 1 Cohort 5, 1800 mg QD, Cycle 2 Day 14, n=1

CCCCCCCCCCCCCCCC(=O)NCCCC[C@@H](N)C(=O)NCCCNCCCCNCCCN [AMXT 1501, D-lys(palmitoyl)-spermine]
Cohort 5 patient AUC versus mouse plasma AUC at efficacious dose (Cohort 5 patients vs 2.5 mg/kg SC in 4T1 mice): 1.72 times
Tlast Mean [1]: 13.2 h
Tlast Median [1]: 6 h
Tlast Mean [2]: 12 h
Tlast Median [2]: 6 h
Tlast Mean [3]: 18 h
Tlast Median [3]: 24 h
Tlast Mean [4]: 15 h
Tlast Median [4]: 15 h
Tlast Mean [5]: 15 h
Tlast Median [5]: 15 h
Tlast Mean [6]: 10.5 h
Tlast Median [6]: 6 h
Tlast Mean [7]: 19.5 h
Tlast Median [7]: 24 h
Tlast Mean [8]: 24 h
Tlast Median [8]: 24 h
Tlast Mean [9]: 25.5 h
Tlast Median [9]: 24 h
Tlast Mean [10]: 40 h
Tlast Median [10]: 24 h
Tlast Mean [11]: 24 h
Tlast Median [11]: 24 h
Tlast Mean [12]: 54 h
Tlast Median [12]: 60 h
Tlast Mean [13]: 24 h
Tlast Median [13]: 24 h
Tlast Mean [14]: 24 h
Tlast Median [14]: 24 h
Tlast Mean [15]: 24 h
Tlast Median [15]: 24 h
sustained plasma level versus predicted efficacious concentration (100 nM, 57 ng/mL) (adult patients, 1,200 mg or 800 mg per day, split BID): above this predicted efficacious concentration value
Cmax (in vivo, 160 mg, Cmax Mean, Part 1 Cohort 2, 160 mg QD, Cycle 1 Day 1): 19.5 ng/mL
Tmax (in vivo, 1800 mg, Tmax Mean, Part 1 Cohort 5, 1800 mg QD, Cycle 1 Day 1): 10.5 h
AUC(0-t) (plasma, oral, 80 mg, AUC0-6 hr Mean, Part 1 Cohort 1, 80 mg QD, Cycle 1 Day 1): 29.6 ng·h/mL
AUC(0-t) (plasma, oral, 80 mg, AUC0-6 hr Mean, Part 1 Cohort 1, 80 mg QD, Cycle 1 Day 14): 91 ng·h/mL
AUC(0-t) (plasma, oral, 80 mg, AUC0-6 hr Median, Part 1 Cohort 1, 80 mg QD, Cycle 1 Day 1): 29.9 ng·h/mL
AUC(0-t) (plasma, oral, 80 mg, AUC0-6 hr Median, Part 1 Cohort 1, 80 mg QD, Cycle 1 Day 14): 51.3 ng·h/mL
AUC(0-t) (plasma, oral, 80 mg, AUC0-t Mean, Part 1 Cohort 1, 80 mg QD, Cycle 1 Day 1): 92 ng·h/mL
AUC(0-t) (plasma, oral, 80 mg, AUC0-t Mean, Part 1 Cohort 1, 80 mg QD, Cycle 1 Day 14): 262 ng·h/mL
AUC(0-t) (plasma, oral, 80 mg, AUC0-t Median, Part 1 Cohort 1, 80 mg QD, Cycle 1 Day 1): 45.3 ng·h/mL
AUC(0-t) (plasma, oral, 80 mg, AUC0-t Median, Part 1 Cohort 1, 80 mg QD, Cycle 1 Day 14): 51.3 ng·h/mL
Cmax (plasma, oral, 80 mg, Cmax Mean, Part 1 Cohort 1, 80 mg QD, Cycle 1 Day 1): 11.7 ng/mL
Cmax (plasma, oral, 80 mg, Cmax Mean, Part 1 Cohort 1, 80 mg QD, Cycle 1 Day 14): 26.2 ng/mL
Cmax (plasma, oral, 80 mg, Cmax Median, Part 1 Cohort 1, 80 mg QD, Cycle 1 Day 1): 10.6 ng/mL
Cmax (plasma, oral, 80 mg, Cmax Median, Part 1 Cohort 1, 80 mg QD, Cycle 1 Day 14): 13.8 ng/mL
Tmax (plasma, oral, 80 mg, Tmax Mean, Part 1 Cohort 1, 80 mg QD, Cycle 1 Day 1): 4.8 h
Tmax (plasma, oral, 80 mg, Tmax Mean, Part 1 Cohort 1, 80 mg QD, Cycle 1 Day 14): 4.67 h
Tmax (plasma, oral, 80 mg, Tmax Median, Part 1 Cohort 1, 80 mg QD, Cycle 1 Day 1): 4 h
Tmax (plasma, oral, 80 mg, Tmax Median, Part 1 Cohort 1, 80 mg QD, Cycle 1 Day 14): 4 h
AUC(0-t) (plasma, oral, 160 mg, AUC0-6 hr Mean, Part 1 Cohort 2, 160 mg QD, Cycle 1 Day 1): 74.8 ng·h/mL
AUC(0-t) (plasma, oral, 160 mg, AUC0-6 hr Mean, Part 1 Cohort 2, 160 mg QD, Cycle 1 Day 14): 43.4 ng·h/mL
AUC(0-t) (plasma, oral, 160 mg, AUC0-6 hr Median, Part 1 Cohort 2, 160 mg QD, Cycle 1 Day 1): 67.1 ng·h/mL
AUC(0-t) (plasma, oral, 160 mg, AUC0-6 hr Median, Part 1 Cohort 2, 160 mg QD, Cycle 1 Day 14): 49.8 ng·h/mL
AUC(0-t) (plasma, oral, 160 mg, AUC0-t Mean, Part 1 Cohort 2, 160 mg QD, Cycle 1 Day 1): 169 ng·h/mL
AUC(0-t) (plasma, oral, 160 mg, AUC0-t Mean, Part 1 Cohort 2, 160 mg QD, Cycle 1 Day 14): 105 ng·h/mL
AUC(0-t) (plasma, oral, 160 mg, AUC0-t Median, Part 1 Cohort 2, 160 mg QD, Cycle 1 Day 1): 130 ng·h/mL
AUC(0-t) (plasma, oral, 160 mg, AUC0-t Median, Part 1 Cohort 2, 160 mg QD, Cycle 1 Day 14): 59.7 ng·h/mL
Cmax (plasma, oral, 160 mg, Cmax Mean, Part 1 Cohort 2, 160 mg QD, Cycle 1 Day 14): 14.1 ng/mL
Cmax (plasma, oral, 160 mg, Cmax Median, Part 1 Cohort 2, 160 mg QD, Cycle 1 Day 1): 17.8 ng/mL
Cmax (plasma, oral, 160 mg, Cmax Median, Part 1 Cohort 2, 160 mg QD, Cycle 1 Day 14): 16.2 ng/mL
Tmax (plasma, oral, 160 mg, Tmax Mean, Part 1 Cohort 2, 160 mg QD, Cycle 1 Day 1): 4 h
Tmax (plasma, oral, 160 mg, Tmax Mean, Part 1 Cohort 2, 160 mg QD, Cycle 1 Day 14): 5 h
Tmax (plasma, oral, 160 mg, Tmax Median, Part 1 Cohort 2, 160 mg QD, Cycle 1 Day 1): 4 h
Tmax (plasma, oral, 160 mg, Tmax Median, Part 1 Cohort 2, 160 mg QD, Cycle 1 Day 14): 5 h
AUC(0-t) (plasma, oral, 400 mg, AUC0-6 hr Mean, Part 1 Cohort 3, 400 mg QD, Cycle 1 Day 14): 289 ng·h/mL
AUC(0-t) (plasma, oral, 400 mg, AUC0-6 hr Mean, Part 1 Cohort 3, 400 mg QD, Day 1): 183 ng·h/mL
AUC(0-t) (plasma, oral, 400 mg, AUC0-6 hr Median, Part 1 Cohort 3, 400 mg QD, Cycle 1 Day 14): 304 ng·h/mL
AUC(0-t) (plasma, oral, 400 mg, AUC0-6 hr Median, Part 1 Cohort 3, 400 mg QD, Day 1): 207 ng·h/mL
AUC(0-t) (plasma, oral, 400 mg, AUC0-t Mean, Part 1 Cohort 3, 400 mg QD, Cycle 1 Day 14): 957 ng·h/mL
AUC(0-t) (plasma, oral, 400 mg, AUC0-t Mean, Part 1 Cohort 3, 400 mg QD, Day 1): 714 ng·h/mL
AUC(0-t) (plasma, oral, 400 mg, AUC0-t Median, Part 1 Cohort 3, 400 mg QD, Cycle 1 Day 14): 1100 ng·h/mL
AUC(0-t) (plasma, oral, 400 mg, AUC0-t Median, Part 1 Cohort 3, 400 mg QD, Day 1): 906 ng·h/mL
Cmax (plasma, oral, 400 mg, Cmax Mean, Part 1 Cohort 3, 400 mg QD, Cycle 1 Day 14): 66.4 ng/mL
Cmax (plasma, oral, 400 mg, Cmax Mean, Part 1 Cohort 3, 400 mg QD, Day 1): 47 ng/mL
Cmax (plasma, oral, 400 mg, Cmax Median, Part 1 Cohort 3, 400 mg QD, Cycle 1 Day 14): 73.5 ng/mL
Cmax (plasma, oral, 400 mg, Cmax Median, Part 1 Cohort 3, 400 mg QD, Day 1): 52.5 ng/mL
Tmax (plasma, oral, 400 mg, Tmax Mean, Part 1 Cohort 3, 400 mg QD, Cycle 1 Day 14): 5 h
Tmax (plasma, oral, 400 mg, Tmax Mean, Part 1 Cohort 3, 400 mg QD, Day 1): 5 h
Tmax (plasma, oral, 400 mg, Tmax Median, Part 1 Cohort 3, 400 mg QD, Cycle 1 Day 14): 5 h
Tmax (plasma, oral, 400 mg, Tmax Median, Part 1 Cohort 3, 400 mg QD, Day 1): 5 h
